pKd: −log10 of the molar value. Where two headings read alike, the source gives them in different places. Where a SMILES comes first, the peptide text is derived from it. [ ]: non-standard residue; d: D form. The star is where a group is joined. X1 = CC(C)C[C@@H](C(N)=O)N(C)C[C@H](Cc1ccccc1)N*; X2 = CC(C)C[C@@H](CN[C@@H](CC(C)C)C(N)=O)N*; Palmitoyl = CCCCCCCCCCCCCCCC(=O)*; pGlu = O=C1CC[C@@H](C(=O)O)N1; Lauroyl = CCCCCCCCCCCC(=O)*; Octanoyl = CCCCCCCC(=O)*
How the values were obtained:
Bombesin Receptor = target: T1, Bombesin Receptor (Mus musculus, UniProt P21729); assay: Phosphatidylinositol turnover in chopped mouse pancreas; assay type: cell-based; design: key to PI Turnover Agonist: (+) represents agonist activity; (-) indicates no agonist activity; conditions: for PI Turnover % Inhibition: antagonist activity, referenced to the stimulation produced by 100 nM GRP
T1 construct: Pancreata from mice were chopped at 350 μm with a tissue chopper and pooled; from tissue; host or cells: chopped mouse pancreas
Experimental: Pancreata from mice were chopped at 350 μm with a tissue chopper and pooled. The chopped tissue was washed twice with oxygenated Krebs-Hepes, then incubated for 30 minutes in 37° C. oxygenated Krebs-Hepes buffer with fresh buffer after 15 minutes. The tissue was then incubated in this buffer containing 200 μCi of [^3 H] inositol at 37° C. for 1 hour. The tissue was then washed twice and incubated for another 30 minutes in oxygenated Krebs-Hepes (containing 10 mM Li^+) at 37° C. with a fresh buffer change after 15 minutes. Portions of the tissue mass (approximately 10 mg per assay tube) were then placed in Li^+ buffer with protease inhibitors, (40 μg/ml bacitracin, 4 μg/ml leupeptin, 4 μg/ml chymostatin, 8 μg/ml thiorphan), 0.1% BSA, and 0.1-10 μM peptide in a final volume of 250 μl. After 60 minutes at room temperature, the phosphatidylinositol turnover was terminated by the addition of 940 μl chloroform:methanol (1:2), followed by 310 μl chloroform, followed by 310 μl water. Each tube was then vortexed for 5 seconds and then centrifuged at 2500 x g for 10 minutes to separate the phases. 50 μl of the bottom phase (chloroform) was withdrawn from each tube and placed in a counting vial, dried, and counted in scintillation fluid. 900 μl of the top (aqueous) phase were then mixed with 2.1 ml water and loaded onto a 0.5 ml Biorad AG-1X8 (formate) ion exchange column. The material on the columns was washed in order with: 1) 10 ml of water 2) 5 ml of 5 mM disodium tetraborate/60 mM sodium formate 3) 10 ml of 1 M ammonium formate in 0.1 M formic acid. The final (third) wash was collected and one ml was mixed with 14 ml of Bio-Safe scintillant and counted. The ratio of these counts (total inositol phosphates) to the corresponding organic phase counts (inositol incorporated into the tissue) was then calculated for each sample. The ratios in the presence of test compound and/or standards were then compared to the ratios for control tubes (i.e., no stimulating agonist). The abilities of test compounds to stimulate phosphatidyl-inositol turnover were determined with the aid of a computer program. […] The ordinate (y-axis) indicates the observed PI turnover as a percentage of control. Values are mean±standard error of triplicate determinations.

bombesin/GRP receptor = target: T2, bombesin/GRP receptor (Mus musculus, UniProt P21729); assay: Competition for 125I-GRP binding to murine pancreatic membranes
T2 construct: The pancreata from one or more mice were pooled and homogenized; from tissue; host or cells: mouse pancreas membranes
Experimental: The pancreata from one or more mice were pooled and homogenized in 50 mM HEPES (pH 7.4) containing 120 mM NaCl, 5 mM KCl, 1 mM EDTA and protease inhibitors (1 μg/ml aprotinin, leupeptin, pepstatin; 4 μg/ml bacitracin, antipain, bestatin; 100 μM PMSF) at 4° C. and centrifuged at 37,500 X g for 15 minutes. The pellet was resuspended in 50 mM HEPES (pH 7.4) containing 10 mM EDTA, 300 mM KCl, and protease inhibitors, and then incubated for 30 minutes at 4° C. The suspension was centrifuged as above and the pellet was washed two times in 50 mM HEPES (pH 7.4) containing 8 μg/ml thiorphan and protease inhibitors, and again centrifuged. The tissue was then resuspended in incubation buffer (1 ml per 4 mg pancreas) and incubated for 15 minutes at room temperature, then 250 μl were added to each assay tube to commence the assay. […] The assay was allowed to proceed to equilibrium for 90 minutes at room temperature. After this time, the contents of each tube was rapidly filtered over Whatman GF/B filters presoaked in 0.1% polyethyleneimine and the filters were rapidly washed three times with ice-cold 50 mM HEPES (pH 7.4). Filter-bound radioactivity was quantitated in a gamma counter. […] Affinity and maximal binding were calculated with LIGAND (Biosoft, Cambridge, UK) (FIGS. 1 and FIG. 2)
The abscissa (x-axis) logarithmically indicates the concentration of agonists being tested.

[1] = competitive binding, mouse pancreas, averages of multiple experiments, read-out: Kd

T1 sequence (P21729 whole entry): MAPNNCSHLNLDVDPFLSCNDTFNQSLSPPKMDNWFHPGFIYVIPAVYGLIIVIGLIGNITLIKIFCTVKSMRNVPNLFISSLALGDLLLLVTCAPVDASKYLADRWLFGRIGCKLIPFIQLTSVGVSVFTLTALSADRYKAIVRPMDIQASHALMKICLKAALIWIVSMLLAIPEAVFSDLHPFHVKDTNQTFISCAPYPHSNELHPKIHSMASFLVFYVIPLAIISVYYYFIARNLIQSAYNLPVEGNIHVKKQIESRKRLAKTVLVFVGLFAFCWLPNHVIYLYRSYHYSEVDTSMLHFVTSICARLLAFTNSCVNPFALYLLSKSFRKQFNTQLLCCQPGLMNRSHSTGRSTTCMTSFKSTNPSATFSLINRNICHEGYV
T2 sequence (P21729 whole entry): as above

PI Turnover % Inhibition (Bombesin Receptor) [%] | pKd (bombesin/GRP receptor; [1]) | PI Turnover Agonist (Bombesin Receptor) | Structure (SMILES) | also measured
83 |  |  | CC(C)C[C@@H](C(N)=O)[S+]([O-])C[C@H](Cc1ccccc1)NC(=O)[C@H](Cc1c[nH]cn1)NC(=O)CNC(=O)[C@@H](NC(=O)[C@H](C)NC(=O)[C@H](Cc1c[nH]c2ccccc12)NC(=O)[C@H](CCC(N)=O)NC(=O)[C@@H]1CCC(=O)N1)C(C)C (single isomer, unassigned) [[Phe^8 .psi.[CH2 S(O)]Leu^9 ]litorin II] [pGlu--Gln--Trp--Ala--Val--Gly--His--Phe.psi.[CH2 S(O)]Leu--NH2] | 
53 |  |  | CC(C)C[C@@H](C(N)=O)[S+]([O-])C[C@H](Cc1ccccc1)NC(=O)[C@H](Cc1c[nH]cn1)NC(=O)CNC(=O)[C@@H](NC(=O)[C@H](C)NC(=O)[C@H](Cc1c[nH]c2ccccc12)NC(=O)[C@H](CCC(N)=O)NC(=O)[C@@H]1CCC(=O)N1)C(C)C (single isomer, unassigned) [[Phe^8 .psi.[CH2 S(O)]Leu^9 ]litorin I] [pGlu--Gln--Trp--Ala--Val--Gly--His--Phe.psi.[CH2 S(O)]Leu--NH2] | 
 | 8.74 |  | CC(C)C[C@@H](C(N)=O)[S+]([O-])C[C@H](Cc1ccccc1)NC(=O)[C@H](Cc1c[nH]cn1)NC(=O)CNC(=O)[C@@H](NC(=O)[C@H](C)NC(=O)[C@H](Cc1c[nH]c2ccccc12)NC(=O)[C@H](CCC(N)=O)NC(=O)[C@@H]1CCC(=O)N1)C(C)C (single isomer, unassigned) [[Phe^8 .psi.[CH2 S(O)]Leu^9]litorin I, pGlu--Gln--Trp--Ala--Val--Gly--His--Phe.psi.[CH2 S(O)]Leu--NH2] | 
 | 9.00 |  | CC(C)C[C@@H](C(N)=O)[S+]([O-])C[C@H](Cc1ccccc1)NC(=O)[C@H](Cc1c[nH]cn1)NC(=O)CNC(=O)[C@@H](NC(=O)[C@H](C)NC(=O)[C@H](Cc1c[nH]c2ccccc12)NC(=O)[C@H](CCC(N)=O)NC(=O)[C@@H]1CCC(=O)N1)C(C)C (single isomer, unassigned) [[Phe^8 .psi.[CH2 S(O)]Leu^9]litorin II, pGlu--Gln--Trp--Ala--Val--Gly--His--Phe.psi.[CH2 S(O)]Leu--NH2] | 
24 |  | - | CC(=O)N[C@@H](CCC(N)=O)C(=O)N[C@@H](Cc1c[nH]c2ccccc12)C(=O)N[C@@H](C)C(=O)N[C@H](C(=O)N[C@H](C)C(=O)N[C@@H](Cc1c[nH]cn1)C(=O)N[C@@H](CC(C)C)C(N)=O)C(C)C [Acetyl[D-Ala^11]bombesin(7-13)amide, Nα-acetyl-Gln--Trp--Ala--Val-D-Ala--His--Leu--NH2] (Ac-QWAV[dA]HL-NH2) | 
53 |  |  | CCCCCCCCCCCC(=O)N[C@@H](CCC(N)=O)C(=O)N[C@@H](Cc1c[nH]c2ccccc12)C(=O)N[C@@H](C)C(=O)N[C@H](C(=O)N[C@H](C)C(=O)N[C@@H](Cc1c[nH]cn1)C(=O)N[C@@H](CC(C)C)C(N)=O)C(C)C [Lauryl[D-Ala^11]bombesin(7-13)amide, Nα-lauryl-Gln--Trp--Ala--Val-D-Ala--His--Leu--NH2] (Lauroyl-QWAV[dA]HL-NH2) | 
 |  | - | CCCCCCCC(=O)N[C@@H](CCC(N)=O)C(=O)N[C@@H](Cc1c[nH]c2ccccc12)C(=O)N[C@@H](C)C(=O)N[C@H](C(=O)N[C@H](C)C(=O)N[C@@H](Cc1c[nH]cn1)C(=O)N[C@@H](CC(C)C)C(N)=O)C(C)C [Octanoyl[D-Ala^11]bombesin(7-13)amide, Nα-octyl-Gln--Trp--Ala--Val-D-Ala--His--Leu--NH2] (Octanoyl-QWAV[dA]HL-NH2; N-terminus and C-terminus assumed) | 
45 |  |  | CCCCCCCCCCCCCCCC(=O)N[C@@H](CCC(N)=O)C(=O)N[C@@H](Cc1c[nH]c2ccccc12)C(=O)N[C@@H](C)C(=O)N[C@H](C(=O)N[C@H](C)C(=O)N[C@@H](Cc1c[nH]cn1)C(=O)N[C@@H](CC(C)C)C(N)=O)C(C)C [Palmityl[D-Ala^11]bombesin(7-13)amide, Nα-palmityl-Gln--Trp--Ala--Val-D-Ala--His--Leu--NH2] (Palmitoyl-QWAV[dA]HL-NH2) | 
30 |  |  | CC(C)C[C@@H](CN[C@@H](CC(C)C)C(N)=O)NC(=O)[C@H](Cc1c[nH]cn1)NC(=O)CNC(=O)[C@@H](NC(=O)[C@H](C)NC(=O)[C@H](Cc1c[nH]c2ccccc12)NC(=O)[C@H](CCC(N)=O)NC(=O)[C@H](CC(N)=O)NC(=O)CNC(=O)[C@H](CC(C)C)NC(=O)[C@H](CCCNC(=N)N)NC(=O)[C@H](CCC(N)=O)NC(=O)[C@@H]1CCC(=O)N1)C(C)C [[Leu^13 .psi.{CH2 NH]Leu^14]bombesin, pGlu--Gln--Arg--Leu--Gly--Asn--Gln--Trp--Ala--Val--Gly--His--Leu.psi.[CH2 N]Leu--NH2, reference compound] ([pGlu]QRLGNQWAVGH-X2) | 
 | 8.10 |  | CC(C)C[C@@H](CN[C@@H](CC(C)C)C(N)=O)NC(=O)[C@H](Cc1cnc[nH]1)NC(=O)CNC(=O)[C@@H](NC(=O)[C@H](C)NC(=O)[C@H](Cc1c[nH]c2ccccc12)NC(=O)[C@H](CCC(N)=O)NC(=O)[C@H](CC(N)=O)NC(=O)CNC(=O)[C@H](CC(C)C)NC(=O)[C@H](CCCN=C(N)N)NC(=O)[C@H](CCC(N)=O)NC(=O)[C@@H]1CCC(=O)N1)C(C)C [[Leu^13 .psi.{CH2 NH]Leu^14]bombesin, pGlu--Gln--Arg--Leu--Gly--Asn--Gln--Trp--Ala--Val--Gly--His--Leu.psi.[CH2 N]Leu--NH2, reference compound] ([pGlu]QRLGNQWAVGH-X2) | 
-16 |  | + | CC(C)C[C@@H](C(N)=O)N(C)C[C@H](Cc1ccccc1)NC(=O)[C@H](Cc1c[nH]cn1)NC(=O)CNC(=O)[C@@H](NC(=O)[C@H](C)NC(=O)[C@H](Cc1c[nH]c2ccccc12)NC(=O)[C@H](CCC(N)=O)NC(=O)[C@@H]1CCC(=O)N1)C(C)C [[Phe^8 .psi.[CH2 N(CH3)]Leu^9]litorin] ([pGlu]QWAVGH-X1) | PI turnover as a percentage of control (FIG. 3) (Bombesin Receptor; triplicate determinations): statistically significant (P<0.005) increase in PI turnover; pKd (bombesin/GRP receptor; duplicate, 20 pM 125I-GRP, two-site fit, read-out: Kd, high affinity class of sites (FIG. 2)): 10.10; pKd (bombesin/GRP receptor; duplicate, 20 pM 125I-GRP, two-site fit, read-out: Kd, low affinity class of sites (FIG. 2)): 7.80; Kd (bombesin/GRP receptor; first of two values in the cell, mouse pancreas, averages of multiple experiments, read-out: Kd (nM), high affinity class of sites): 0.019 nM; Kd (bombesin/GRP receptor; second of two values in the cell, mouse pancreas, averages of multiple experiments, read-out: Kd (nM), low affinity class of sites): 23 nM; receptors in the high affinity state (FIG. 2) (bombesin/GRP receptor; two-site fit, 20 pM 125I-GRP): 20%
42 |  |  | CC(C)C[C@H](SC[C@H](Cc1ccccc1)NC(=O)[C@H](Cc1c[nH]cn1)NC(=O)CNC(=O)[C@@H](NC(=O)[C@H](C)NC(=O)[C@H](Cc1c[nH]c2ccccc12)NC(=O)[C@H](CCC(N)=O)NC(=O)[C@@H]1CCC(=O)N1)C(C)C)C(N)=O [[Phe^8 .psi.[CH2 S]Leu^9]litorin, pGlu--Gln--Trp--Ala--Val--Gly--His--Phe.psi.[CH2 S]Leu--NH2] | 

Structure (SMILES) | PI Turnover % Inhibition (Bombesin Receptor) [%] | pKd (bombesin/GRP receptor; [1]) | PI Turnover Agonist (Bombesin Receptor) | also measured
CSCC[C@H](NC(=O)[C@H](Cc1ccccc1)NC(=O)[C@H](Cc1c[nH]cn1)NC(=O)CNC(=O)[C@@H](NC(=O)[C@H](C)NC(=O)[C@H](Cc1c[nH]c2ccccc12)NC(=O)[C@H](CCC(N)=O)NC(=O)[C@@H]1CCC(=O)N1)C(C)C)C(N)=O [Litorin, pGlu--Gin--Trp--Ala--Val--Gly--His--Phe--Met--NH2, reference compound] |  | 10.12 | + | pKd (bombesin/GRP receptor; triplicate, in the presence of 40 pM 125I-GRP, LIGAND fit, read-out: Kd, single class of sites (FIG. 2)): 10.00

Source: US5428019A, “Bombesin analogs” (Merrell Dow Pharmaceuticals Inc., priority 1994, dated 1995)
